Key:
HT-29 cell line = test: 3D spheroid tumor formation and growth; format: cell-based, human; settings: for effect on tumor formation, treatment before tumor formation: 150 µM; for effect on growing tumors, treatment after spheroid formation: HT-29 spheroids, single dose 72 h after seeding, for additional 72 hours
Description: The spheroid formation potential of HT29 human colon cancer cell line was evaluated in 3D nonadherent culture condition. Initially the HT29 human cells were grown as a monolayer after which they were counted, re-suspended and plated with 1,500 cells per well in a 96-well plate pre-coated with a thin layer of 1.5% agarose (w/v) in McCoy's 5A medium containing 10% FBS and incubated at 37° C. in a humidified atmosphere of 5% CO2. Cell culture media was replaced every 2-3 days with fresh medium to remove cellular debris and the spheroids that were not well-formed. After the beginning of the multicellular tumor spheroid formation, the tested compounds were added at various concentrations (0.2, 0.4 and 0.6 mg/ml) and incubated for 24, 48 and 72 h. The number and diameter of colonies within each well were photographed and counted every day under the microscope (Olympus BX-51; Olympus, Hamburg, Germany), and the images of the representative fields were captured. Each sample was analyzed in triplicate, and all the experiments were performed three times. The viability of cells growing on the spheroids was measured by the APH (acid phosphatase) assay, which was performed according to manufacturer's instructions.
The cellular assays described above were performed in a monolayer system. Although monolayer systems partially reflect the microenvironment of cancer cells, there are currently more advanced culture methods that mimic in a better way the cellular interactions by the cells comprising the tumor (Freidrich, J. et. al.; Nat. Prot. 2009, 4, 309-324). […] This assay can be applied to test whether the compounds treatment is able of impairing tumors formation or alternately to test the effect of the treatment in growing tumors. HT-29 cell line was used for this model due to its capacity to form spheroids in vitro.

leukemia = settings: Dimas et al. 2000; cited from earlier work
[1] = system: methicillin-resistant Staphylococcus aureus; settings: Ibrahim et al. 2009; cited from earlier work

| SMILES | effect on tumor formation, treatment before tumor formation (HT-29 cell line) | effect on growing tumors, treatment after spheroid formation (HT-29 cell line) | also measured |
| --- | --- | --- | --- |
| O=C(O)/C=C/c1ccc(O)cc1 [p-coumaric acid] | no effect | – | – |
| N.N.O=C([O-])C1(C(=O)[O-])CCC1.[Pt+2] [carboplatin] | – | didn't generate any effect | – |
| O=C1C[C@@H](c2ccc(O)cc2)Oc2cc(O)cc(O)c21 [naringenin] | no effect | – | – |
| CCc1c2c(nc3ccc(OC(=O)N4CCC(N5CCCCC5)CC4)cc13)-c1cc3c(c(=O)n1C2)COC(=O)[C@]3(O)CC [irinotecan] | – | didn't generate any effect | – |
| C[C@@H]1O[C@@H](Oc2c(-c3ccc(O)cc3)oc3cc(O)cc(O)c3c2=O)[C@H](OC(=O)/C=C/c2ccc(O)cc2)[C@H](OC(=O)/C=C/c2ccc(O)cc2)[C@H]1O [Platanoside, platanoside] | – | – | anti-leukemic activity (leukemia): active as an anti-leukemic agent; anti-methicillin-resistant Staphylococcus aureus activity [1]: anti-methicillin-resistant Staphylococcus aureus |

Source: patent publication US11344567B2, “Methods of treating cancer using platanoside and isomers thereof” (SHARE GAL RESEARCH AND DEVELOPMENT LTD, priority 2018, dated 2022)
